Reference: US11464763B2, “Parasiticidal compositions comprising an isoxazoline active agent, methods and uses thereof” (BOEHRINGER INGELHEIM ANIMAL HEALTH USA INC., priority 2011, dated 2022)

Columns and labels:
Otodectes cynotis = experiment: Spot-on efficacy against Otodectes cynotis (ear mites) in cats (Example 12); assay type: in vivo; details: live mite count Day 14
Protocol: The efficacy of two spot-on compositions comprising Compound A at doses of 5 mg/kg and 10 mg/kg against Otodectes cynotis in cats was evaluated compared to an untreated control. Eighteen healthy cats were grouped into three study groups consisting of six cats per group. Cats in the treatment groups were infested with Otodectes cynotis obtained from naturally infested donor cats prior to acclimation on Day −7. Group 1 was an untreated control group. Cats in Groups 2 and 3 were treated once on Day 0 with a spot-on composition comprising Compound A at two different concentrations and doses by application of the formulation directly on the skin in the midline of the neck between the base of the skull and the shoulder blades with a 1 mL disposable syringe. Cats in Group 2 were treated with a spot-on composition containing 5.0% (w/v) Compound A in a carrier containing 40% (v/v) diethyl sebacate (DES) in dimethylisosorbide (DMI) at a dose of 5 mg/kg body weight; and cats in Group 3 were treated with a spot-on composition containing 10.0% (w/v) Compound A in a carrier containing 40% (v/v) DES in DMI at a dose of 10 mg/kg body weight. […] Visible live ear mites (adult or immature) were counted and debris/cerumen level was estimated for both ear ducts. A quantitative assessment of ear mites by ear duct flushing, mite collection and live mite count was performed on Day 14. […]

Linognathus vituli = experiment: Pour-on efficacy against Linognathus vituli (sucking lice) in cattle (Example 16); assay type: in vivo
Protocol: The efficacy of two pour-on formulations of the invention comprising isoxazoline Compound A at doses of 2.5 mg/kg and 10 mg/kg were tested against natural and induced infestations with Linognathus vituli (sucking lice) in cattle compared with an untreated control. Four healthy head of cattle weighing between 100 to 300 kg were used in each study group. Cattle in Group 1 were untreated (control). Cattle in Group 2 were treated on Day 0 with a pour-on formulation comprising Compound A at a concentration of 2.5% (w/v) in DES at a dose of 2.5 mg/kg; and cattle in Group 3 were treated on Day 0 with a pour-on formulation comprising Compound A at a concentration of 10% (w/v) in DES at a dose of 10 mg/kg. The formulation was applied by measuring the required amount of the solution into a marked disposable syringe and applying the material evenly along the mid-line of the back of each animal from the withers to the tail head.
Live lice (adults plus nymphs) were counted on days 2, 7, 14, 21, 28, 35, 42, 49 and 56 by counting lice on six selected sites approximately 5 cm×15 cm on the body surface of the animal by direct examination. In the absence of lice on the selected sites, a thorough body search was conducted. The total louse counts per animal were determined by summation of the live louse numbers at each site per animal. Tables 17A and 17B below show the efficacy of the two pour-on formulations against Linognathus vituli over 56 days. As the tables show, both pour-on formulations were efficacious through at least day 56 of the study with 100% efficacy observed starting day 7. Efficacy on day 2 of the study was greater than 90% in each of the study groups. The long lasting efficacy against Linognathus vituli from one topical treatment is unexpected and surprising.

SMILES: O=C(CNC(=O)c1ccc(C2=NOC(c3cc(Cl)cc(C(F)(F)F)c3)(C(F)(F)F)C2)c2ccccc12)NCC(F)(F)F (stereo not shown) [Compound A, 4-[5-[3-chloro-5-(trifluoromethyl)phenyl]-4,5-dihydro-5-(trifluoromethyl)-3-isoxazolyl]-N-[2-oxo-2-[(2,2,2-trifluoroethyl)amino]ethyl]-1-naphthalanecarboxamide]
- reduced the infestation of ear mites (Otodectes cynotis; Group 2: 5.0% in 40% DES in DMI, 5 mg/kg): 99.0%
- reduced the infestation of ear mites (Otodectes cynotis; Group 3: 10.0% in 40% DES in DMI, 10 mg/kg): 100.0%
- % Reduction (Linognathus vituli; Group 2: pour-on 2.5% in DES, 2.5 mg/kg, Day 2): 92%
- % Reduction (Linognathus vituli; Group 2: pour-on 2.5% in DES, 2.5 mg/kg, Day 7): 100%
- % Reduction (Linognathus vituli; Group 2: pour-on 2.5% in DES, 2.5 mg/kg, Day 14): 100%
- % Reduction (Linognathus vituli; Group 2: pour-on 2.5% in DES, 2.5 mg/kg, Day 21): 100%
- % Reduction (Linognathus vituli; Group 2: pour-on 2.5% in DES, 2.5 mg/kg, Day 28): 100%
- % Reduction (Linognathus vituli; Group 3: pour-on 10% in DES, 10 mg/kg, Day 2): 98%
- % Reduction (Linognathus vituli; Group 3: pour-on 10% in DES, 10 mg/kg, Day 7): 100%
- % Reduction (Linognathus vituli; Group 3: pour-on 10% in DES, 10 mg/kg, Day 14): 100%
- % Reduction (Linognathus vituli; Group 3: pour-on 10% in DES, 10 mg/kg, Day 21): 100%
- % Reduction (Linognathus vituli; Group 3: pour-on 10% in DES, 10 mg/kg, Day 28): 100%
- efficacy against Linognathus vituli (Linognathus vituli; both pour-on formulations, starting day 7 through at least day 56): 100%
- efficacy against Linognathus vituli (Linognathus vituli; each of the study groups, day 2): greater than 90%
- % Reduction (Linognathus vituli; live lice counts, Group 2: pour-on 2.5% (w/v) in DES, 2.5 mg/kg, Day 35): 92%
- % Reduction (Linognathus vituli; live lice counts, Group 2: pour-on 2.5% (w/v) in DES, 2.5 mg/kg, Day 42): 100%
- % Reduction (Linognathus vituli; live lice counts, Group 2: pour-on 2.5% (w/v) in DES, 2.5 mg/kg, Day 49): 100%
- % Reduction (Linognathus vituli; live lice counts, Group 2: pour-on 2.5% (w/v) in DES, 2.5 mg/kg, Day 56): 100%
- % Reduction (Linognathus vituli; live lice counts, Group 3: pour-on 10% (w/v) in DES, 10 mg/kg, Day 35): 98%
- % Reduction (Linognathus vituli; live lice counts, Group 3: pour-on 10% (w/v) in DES, 10 mg/kg, Day 42): 100%
- % Reduction (Linognathus vituli; live lice counts, Group 3: pour-on 10% (w/v) in DES, 10 mg/kg, Day 49): 100%
- % Reduction (Linognathus vituli; live lice counts, Group 3: pour-on 10% (w/v) in DES, 10 mg/kg, Day 56): 100%
